{"source": "patent US8772268B2", "about": "“Bisphosphonamidate prodrugs and uses thereof” (The Johns Hopkins University, priority 2010, dated 2014)", "key": {"[1]": {"tested_on": "MCF7", "assay": "NCI-60 DTP Human Tumor Cell Line Screen", "format": "cell-based", "details": "MCF7, Breast Cancer, 48 h"}, "[2]": {"tested_on": "RXF 393", "assay": "NCI-60 DTP Human Tumor Cell Line Screen", "format": "cell-based", "details": "RXF 393, Renal Cancer, 48 h"}, "[3]": {"tested_on": "SK-MEL-28", "assay": "NCI-60 DTP Human Tumor Cell Line Screen", "format": "cell-based", "details": "SK-MEL-28, Melanoma, 48 h"}, "[4]": {"tested_on": "MDA-MB-468", "assay": "NCI-60 DTP Human Tumor Cell Line Screen", "format": "cell-based", "details": "MDA-MB-468, Breast Cancer, 48 h"}, "[5]": {"assay": "In vivo tolerance study, I.V. dosing (tail vein)", "set-up": "species or system Balb/c mice", "description": "Ten Balb/c mice were split into three groups: untreated, vehicle and clodronate prodrug. Untreated mice received no treatment or injection. The vehicle was 100 μL 10% cremaphor in ddH20 injected into the tale vein. 100 μL of 3 mM Clodronate Prodrug dissolved in 10% cremaphor in ddH20. (100 μL of 3 mM is about 14 mg/kg)."}, "[6]": {"tested_on": "HT29", "assay": "NCI-60 DTP Human Tumor Cell Line Screen", "format": "cell-based", "details": "HT29, Colon Cancer, 48 h"}, "[7]": {"tested_on": "M14", "assay": "NCI-60 DTP Human Tumor Cell Line Screen", "format": "cell-based", "details": "M14, Melanoma, 48 h"}, "[8]": {"tested_on": "NCI-H23", "assay": "NCI-60 DTP Human Tumor Cell Line Screen", "format": "cell-based", "details": "NCI-H23, Non-Small Cell Lung Cancer, 48 h"}, "[9]": {"tested_on": "A549 NSCLC cells", "assay": "Effect of drug treatment time (MTS, drug removed)", "format": "cell-based", "details": "A549, 24 or 2 h exposure, viability measured after 48 h", "description": "Cell proliferation was determined using the CellTiter 96 Aqueous One Solution Cell Proliferation Assay MTS assay. A549 NSCLC cells were plated at 1.5×10^3 cells per well in flat bottom 96 well plates in 99 μL of media and allowed to adhere overnight. The drugs were serially diluted in 100% DMSO. For each drug treatment group, 1 μL of a 100× stock solution was added to each well for a final DMSO concentration of 1%. Cells were treated for 2, 24, or 48 under normoxic or hypoxic (1-3% oxygen) conditions. Following 2 or 24 h, media containing drug was removed, the cells were washed 1× with fresh media, and 100 μL fresh media was added to each well. Cells were then allowed to grow for an additional 46 or 24 h in drug free media. After 48 h, cells were incubated with MTS dye (20 μL well^−1) for 40 min to 2 h. Absorbance at 490 nm was determined using a SpectraMax M2 (Molecular Devices) plate reader. The percent cell proliferation was calculated by converting the experimental absorbance to percentage of control, which was then plotted vs. drug concentration. The IC50 values were determined using a non-linear dose-response analysis in GraphPad Prism version 4.0.\nA549 cells were treated with prodrug 14 for 24 or 2 h. Prodrug was removed and cell viability measured after 48 h using a standard MTS assay. Longer exposure to […] results in lower […]."}, "[10]": {"tested_on": "SK-MEL-2", "assay": "NCI-60 DTP Human Tumor Cell Line Screen", "format": "cell-based", "details": "SK-MEL-2, Melanoma, 48 h"}, "[11]": {"tested_on": "MOLT-4", "assay": "NCI-60 DTP Human Tumor Cell Line Screen", "format": "cell-based", "details": "MOLT-4, Leukemia, 48 h"}, "[12]": {"tested_on": "HL-60(TB)", "assay": "NCI-60 DTP Human Tumor Cell Line Screen", "format": "cell-based", "details": "Leukemia, 48 h"}, "[13]": {"tested_on": "EKVX", "assay": "NCI-60 DTP Human Tumor Cell Line Screen", "format": "cell-based", "details": "Non-Small Cell Lung Cancer, 48 h"}, "[14]": {"tested_on": "BT-549", "assay": "NCI-60 DTP Human Tumor Cell Line Screen", "format": "cell-based", "details": "BT-549, Breast Cancer, 48 h"}, "[15]": {"tested_on": "SNB-75", "assay": "NCI-60 DTP Human Tumor Cell Line Screen", "format": "cell-based", "details": "SNB-75, CNS Cancer, 48 h"}, "[16]": {"tested_on": "MDA-MB-435", "assay": "NCI-60 DTP Human Tumor Cell Line Screen", "format": "cell-based", "details": "MDA-MB-435, Melanoma, 48 h"}, "[17]": {"tested_on": "MDA-MB-231/ATCC", "assay": "NCI-60 DTP Human Tumor Cell Line Screen", "format": "cell-based", "details": "Breast Cancer, 48 h"}, "[18]": {"tested_on": "RPMI-8226", "assay": "NCI-60 DTP Human Tumor Cell Line Screen", "format": "cell-based", "details": "RPMI-8226, Leukemia, 48 h"}}, "note": "Several values for one entry are separate records, joined by “and”; a condition that tells them apart may be missing. Identical values can stand only once.", "data": [{"compound": "CN(CCCCCl)P(=O)(OCc1ccc([N+](=O)[O-])cc1)C(Cl)(Cl)P(=O)(OCc1ccc([N+](=O)[O-])cc1)N(C)CCCCCl", "note": "(centres unmarked) [compound 14]", "values": [{"measurement": "Log10GI50", "setting": "[1]", "value": "−5.47"}, {"measurement": "Log10LC50", "setting": "[1]", "value": ">−4.00"}, {"measurement": "Log10TGI", "setting": "[1]", "value": "−4.82"}, {"measurement": "Log10GI50", "setting": "[2]", "value": "−5.50"}, {"measurement": "Log10LC50", "setting": "[2]", "value": ">−4.00"}, {"measurement": "Log10TGI", "setting": "[2]", "value": "−4.38"}, {"measurement": "Log10GI50", "setting": "[3]", "value": "−5.42"}, {"measurement": "Log10LC50", "setting": "[3]", "value": ">−4.00"}, {"measurement": "Log10TGI", "setting": "[3]", "value": ">−4.00"}, {"measurement": "Log10GI50", "setting": "[4]", "value": "−5.58"}, {"measurement": "Log10LC50", "setting": "[4]", "value": ">−4.00"}, {"measurement": "Log10TGI", "setting": "[4]", "value": "−5.07"}, {"measurement": "Mouse weight", "setting": "[5]; Mar. 21, 2011, i.v. 100 μL of 3 mM (about 14 mg/kg), individual mice, listed as cloprodrug", "value": "15.9 g and 14.5 g and 15.6 g"}, {"measurement": "Δ in weight", "setting": "[5]; Mar. 21 to Mar. 28, 2011, i.v. about 14 mg/kg, individual mice, listed as cloprodrug", "value": "2.2 g and 2.7 g and 0.6 g"}, {"measurement": "Mouse weight", "setting": "[5]; Mar. 23, 2011, i.v. about 14 mg/kg, individual mice, listed as cloprodrug", "value": "17.6 g and 16.4 g and 16.2 g"}, {"measurement": "Mouse weight", "setting": "[5]; Mar. 25, 2011, i.v. about 14 mg/kg, individual mice, listed as cloprodrug", "value": "18.2 g and 16.8 g and 16.4 g"}, {"measurement": "Mouse weight", "setting": "[5]; Mar. 28, 2011, i.v. about 14 mg/kg, individual mice, listed as cloprodrug", "value": "18.1 g and 17.2 g and 16.2 g"}, {"measurement": "behavior", "setting": "[5]; i.v. about 14 mg/kg", "value": "no unusual behavior observed"}, {"measurement": "difference in weight between the three treatment groups", "setting": "[5]; i.v. about 14 mg/kg vs vehicle and untreated", "value": "no significant difference in weight"}, {"measurement": "Log10GI50", "setting": "[6]", "value": "−5.48"}, {"measurement": "Log10LC50", "setting": "[6]", "value": ">−4.00"}, {"measurement": "Log10TGI", "setting": "[6]", "value": "−4.65"}, {"measurement": "Log10GI50", "setting": "[7]", "value": "−5.40"}, {"measurement": "Log10LC50", "setting": "[7]", "value": ">−4.00"}, {"measurement": "Log10TGI", "setting": "[7]", "value": ">−4.00"}, {"measurement": "Log10GI50", "setting": "[8]", "value": "−5.58"}, {"measurement": "Log10LC50", "setting": "[8]", "value": ">−4.00"}, {"measurement": "Log10TGI", "setting": "[8]", "value": ">−4.00"}, {"measurement": "growth inhibition over shorter drug treatment times", "setting": "[9]", "value": "more potent growth inhibition than zoledronate"}, {"measurement": "Log10GI50", "setting": "[10]", "value": "−5.60"}, {"measurement": "Log10LC50", "setting": "[10]", "value": ">−4.00"}, {"measurement": "Log10TGI", "setting": "[10]", "value": "−5.18"}, {"measurement": "Log10GI50", "setting": "[11]", "value": "−5.53"}, {"measurement": "Log10LC50", "setting": "[11]", "value": ">−4.00"}, {"measurement": "Log10TGI", "setting": "[11]", "value": "−5.04"}, {"measurement": "Log10GI50", "setting": "[12]", "value": "−5.39"}, {"measurement": "Log10LC50", "setting": "[12]", "value": ">−4.00"}, {"measurement": "Log10TGI", "setting": "[12]", "value": ">−4.00"}, {"measurement": "Log10GI50", "setting": "[13]", "value": "−5.50"}, {"measurement": "Log10LC50", "setting": "[13]", "value": ">−4.00"}, {"measurement": "Log10TGI", "setting": "[13]", "value": ">−4.00"}, {"measurement": "Log10GI50", "setting": "[14]", "value": "−5.50"}, {"measurement": "Log10LC50", "setting": "[14]", "value": ">−4.00"}, {"measurement": "Log10TGI", "setting": "[14]", "value": "−5.03"}, {"measurement": "Log10GI50", "setting": "[15]", "value": "−5.65"}, {"measurement": "Log10LC50", "setting": "[15]", "value": ">−4.00"}, {"measurement": "Log10TGI", "setting": "[15]", "value": "−5.17"}, {"measurement": "Log10GI50", "setting": "[16]", "value": "−5.55"}, {"measurement": "Log10LC50", "setting": "[16]", "value": ">−4.00"}, {"measurement": "Log10TGI", "setting": "[16]", "value": "−4.65"}, {"measurement": "Log10GI50", "setting": "[17]", "value": "−5.51"}, {"measurement": "Log10LC50", "setting": "[17]", "value": ">−4.00"}, {"measurement": "Log10TGI", "setting": "[17]", "value": ">−4.00"}, {"measurement": "Log10GI50", "setting": "[18]", "value": "−5.57"}, {"measurement": "Log10LC50", "setting": "[18]", "value": ">−4.00"}, {"measurement": "Log10TGI", "setting": "[18]", "value": ">−4.00"}]}]}
